According to ChEMBL document CHEMBL4118125, “MK-8325: A silyl proline-containing NS5A inhibitor with pan-genotype activity for treatment of HCV” (Bioorg Med Chem Lett, 2018):

Columns and labels:
[1] = Oral bioavailability in Sprague-Dawley rat at 5 mg/kg by LC-MS/MS method; type: ADME, organism-based; details: in vivo
[2] = Volume of distribution at steady state in Sprague-Dawley rat at 2.5 mg/kg, iv by LC-MS/MS method; type: ADME, organism-based; details: in vivo, read-out: Vdss
[3] = Tmax in Sprague-Dawley rat at 5 mg/kg, po by LC-MS/MS method; type: ADME, organism-based; details: in vivo
[4] = Terminal half life in Sprague-Dawley rat at 2.5 mg/kg, iv by LC-MS/MS method; type: ADME, organism-based; details: in vivo, read-out: beta t1/2 (converted)
[5] = Effective half life in cynomolgus monkey at 1 mg/kg, iv by LC-MS/MS method; type: ADME, organism-based, Macaca fascicularis; details: in vivo, read-out: t1/2eff (converted)
Rattus norvegicus = test: Dose normalized AUC in Sprague-Dawley rat at 5 mg/kg, po by LC-MS/MS method; type: ADME, organism-based; details: in vivo
[6] = AUC in beagle dog at 2 mg/kg, po by LC-MS/MS method; type: ADME, organism-based, Canis lupus familiaris; details: beagle, in vivo
[7] = Cmax in Sprague-Dawley rat at 5 mg/kg, po by LC-MS/MS method; type: ADME, organism-based; set-up: dose 5 mg/kg, route oral; details: in vivo
[8] = Cmax in beagle dog at 2 mg/kg, po by LC-MS/MS method; type: ADME, organism-based, Canis lupus familiaris; set-up: dose 2 mg/kg, route oral; details: in vivo
Canis familiaris = test: Dose normalized AUC in beagle dog at 2 mg/kg, po by LC-MS/MS method; type: ADME, organism-based, Canis lupus familiaris; details: in vivo
[9] = Volume of distribution at steady state in beagle dog at 1 mg/kg, iv by LC-MS/MS method; type: ADME, organism-based, Canis lupus familiaris; details: in vivo, read-out: Vdss
[10] = Terminal half life in beagle dog at 1 mg/kg, iv by LC-MS/MS method; type: ADME, organism-based, Canis lupus familiaris; details: in vivo, read-out: beta t1/2 (converted)
[11] = Tmax in cynomolgus monkey at 2 mg/kg, po by LC-MS/MS method; type: ADME, organism-based, Macaca fascicularis; details: in vivo
[12] = AUC in Sprague-Dawley rat at 5 mg/kg, po by LC-MS/MS method; type: ADME, organism-based; details: in vivo
[13] = Clearance in cynomolgus monkey at 1 mg/kg, iv by LC-MS/MS method; type: ADME, organism-based, Macaca fascicularis; details: in vivo
[14] = Oral bioavailability in fasted dog at 2 mg/kg by LC-MS/MS method; type: ADME, organism-based, Canis lupus familiaris; details: in vivo
[15] = Cmax in cynomolgus monkey at 2 mg/kg, po by LC-MS/MS method; type: ADME, organism-based, Macaca fascicularis; set-up: dose 2 mg/kg, route oral; details: in vivo
[16] = Volume of distribution at steady state in cynomolgus monkey at 1 mg/kg, iv by LC-MS/MS method; type: ADME, organism-based, Macaca fascicularis; details: in vivo, read-out: Vdss
[17] = Drug level in beagle dog at 2 mg/kg, po after 24 hrs by LC-MS/MS method; type: ADME, organism-based, Canis lupus familiaris; details: in vivo, read-out: Drug uptake
[18] = Oral bioavailability in beagle dog at 2 mg/kg by LC-MS/MS method; type: ADME, organism-based, Canis lupus familiaris; details: in vivo
[19] = Drug level in Sprague-Dawley rat at 5 mg/kg, po after 24 hrs by LC-MS/MS method; type: ADME, organism-based; details: in vivo, read-out: Drug uptake
[20] = Terminal half life in cynomolgus monkey at 1 mg/kg, iv by LC-MS/MS method; type: ADME, organism-based, Macaca fascicularis; details: in vivo, read-out: beta t1/2 (converted)
[21] = Clearance in Sprague-Dawley rat at 2.5 mg/kg, iv by LC-MS/MS method; type: ADME, organism-based; details: in vivo
[22] = Effective half life in Sprague-Dawley rat at 2.5 mg/kg, iv by LC-MS/MS method; type: ADME, organism-based; details: in vivo, read-out: t1/2eff (converted)
[23] = Effective half life in beagle dog at 1 mg/kg, iv by LC-MS/MS method; type: ADME, organism-based, Canis lupus familiaris; details: in vivo, read-out: t1/2eff (converted)
[24] = Tmax in beagle dog at 2 mg/kg, po by LC-MS/MS method; type: ADME, organism-based, Canis lupus familiaris; details: in vivo
[25] = AUC in cynomolgus monkey at 2 mg/kg, po by LC-MS/MS method; type: ADME, organism-based, Macaca fascicularis; details: in vivo
[26] = Drug level in cynomolgus monkey at 2 mg/kg, po after 24 hrs by LC-MS/MS method; type: ADME, organism-based, Macaca fascicularis; details: in vivo, read-out: Drug uptake
Cynomolgus monkey = test: Dose normalized AUC in cynomolgus monkey at 2 mg/kg, po by LC-MS/MS method; type: ADME, organism-based, Macaca fascicularis; details: in vivo
[27] = Clearance in beagle dog at 1 mg/kg, iv by LC-MS/MS method; type: ADME, organism-based, Canis lupus familiaris; details: in vivo
[28] = Oral bioavailability in cynomolgus monkey at 2 mg/kg by LC-MS/MS method; type: ADME, organism-based, Macaca fascicularis; details: in vivo

COC(=O)N[C@H](C(=O)N1CC(F)(F)C[C@H]1c1ncc(-c2ccc(-c3ccc4c(ccc5nc([C@@H]6C[Si](C)(C)CN6C(=O)[C@@H](NC(=O)OC)C(C)C)[nH]c54)c3)cc2)[nH]1)C(C)C.Cl.Cl showed a bioavailability [1] of 28%, a Vd [2] of 3.7 L/kg and a Tmax [3] of 5.3 h. It also gave a half-life [4] of 9.7 h, a half-life [5] of 17 h and an AUC/dose (Rattus norvegicus) of 1 µM·h/mg/kg. The AUC [6] was 4.2 µM·h, the Cmax [7] was 330 nM and the Cmax [8] was 270 nM. It also gave an AUC/dose (Canis familiaris) of 2.1 µM·h/mg/kg, a Vd [9] of 1.3 L/kg and a half-life [10] of 26 h. The Tmax [11] was 4.7 h, the AUC [12] was 5 µM·h and the clearance [13] was 1.2 mL/min/kg. For the same compound, the bioavailability [14] was 9%, the Cmax [15] was 180 nM and the Vd [16] was 1.7 L/kg. For the same compound, the concentration at 24 h [17] was 40 nM, the bioavailability [18] was 8.7% and the concentration at 24 h [19] was 51 nM. It also gave a half-life [20] of 20 h, a clearance [21] of 5.6 mL/min/kg and a half-life [22] of 7.6 h. For the same compound, the half-life [23] was 18 h, the Tmax [24] was 2.7 h and the AUC [25] was 4 µM·h. For the same compound, the concentration at 24 h [26] was 55 nM, the AUC/dose (Cynomolgus monkey) was 2 µM·h/mg/kg and the clearance [27] was 0.8 mL/min/kg. For the same compound, the bioavailability [28] was 11.7%.
